Test results: US8461329B2, “Isoquinoline derivative” (Taisho Pharmaceutical Co., Ltd., priority 2008, dated 2013)
Where two headings read alike, the source gives them in different places.

Assays:
CRTH2 (KB8 cells) = molecular target: T1, CRTH2 (KB8 cells) (Homo sapiens, UniProt Q9Y5Y4); experiment: CRTH2 antagonist test (PGD2-induced intracellular calcium ion concentration increase in KB8 cells); assay type: cell-based; details: PGD2 final concentration 100 nM, Fluo-4-AM fluorescence, read-out: antagonist activity (IC50 value, inhibition of calcium ion concentration increase)
T1 construct: host or cells: KB8 cells (human CRTH2 expression cell)
T1 sequence (Q9Y5Y4 1-395): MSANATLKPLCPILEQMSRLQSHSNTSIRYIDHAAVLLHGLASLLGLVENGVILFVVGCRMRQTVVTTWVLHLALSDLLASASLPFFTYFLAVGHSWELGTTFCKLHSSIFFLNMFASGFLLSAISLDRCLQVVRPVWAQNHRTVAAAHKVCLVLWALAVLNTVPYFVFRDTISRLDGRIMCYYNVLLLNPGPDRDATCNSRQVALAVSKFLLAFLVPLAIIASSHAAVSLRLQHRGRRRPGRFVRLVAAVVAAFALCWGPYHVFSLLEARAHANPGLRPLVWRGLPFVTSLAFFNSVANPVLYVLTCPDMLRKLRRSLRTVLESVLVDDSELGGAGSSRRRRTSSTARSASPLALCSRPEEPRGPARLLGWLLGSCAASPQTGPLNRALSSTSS
Method in brief: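 Fluo-4-AM-loaded KB8 cells in HBSS with 10 mM HEPES and 1 mM CaCl2 received compound plus PGD2 (final 100 nM); peak fluorescence followed over time. Inhibition was computed against no-compound and unlabelled-PGD2 controls, and IC50 obtained from a dose-response curve.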

[1] = molecular target: T2, human CRTH2 expression cell KB8 (Homo sapiens, UniProt Q9Y5Y4); experiment: CRTH2 binding test (3H-PGD2 binding to KB8 cells); details: 3H-PGD2 5 nM, 4° C., one hour
T2 construct: host or cells: KB8 cells (human CRTH2 expression cell)
T2 sequence (Q9Y5Y4 1-395): T1 sequence (Q9Y5Y4 1-395)
Experimental: CRTH2 binding inhibitory activity of the compound of the present invention was considered by using a binding test between human CRTH2 expression cell KB8 (BML, INC.) and ^3H-labeled prostaglandin D2 (hereinafter, abbreviated as ^3H-PGD2, manufactured by GE Healthcare).
KB8 was suspended in a reaction buffer solution (Hank's balanced salt solution (Invitrogen) containing 10 mM HEPES (Invitrogen)), which was dispensed in a 96 well plate (Coaster) so that 2×10^5 cells/well are placed. Furthermore, the compound of the present invention and ^3H-PGD2 (final concentration: 5 nM) were added, stirred, and incubated at 4° C.
One hour later, cells were collected on GF/C Filter Plate (PerkinElmer) that had been pre-coated with 0.5% polyethyleneimine solution (SIGMA) by using a Cell Harvester (Packard BioScience), and the radioactivity of the cells was measured by using Top count NXT (PerkinElmer) (a value measured herein was represented by a measurement value “a”). The same procedure was carried out in the absence of the compound, and a measurement value “b” was obtained; and the same procedure was carried out in the absence of the compound and in the presence of non-labeled PGD2 (final concentration: 50 μM), a measurement value “c” was obtained.
The binding inhibition rate of the compound was calculated by the following calculation formula: Bonding inhibitory rate(%)=[1−(a−c)/(b−c)]×100
That is to say, by using binding inhibition rates of compounds to be tested having various concentrations, the IC50 value was calculated according to a dose-dependent inhibition curve analyzed by using XLfit (IDBS) as a data analysis software, and the calculated value was defined as an indicator of the inhibitory activity. In Table 9, A denotes an inhibitory activity showing the IC50 value of less than 50 nM; B denotes an inhibitory activity showing the IC50 value of 50 nM or greater and less than 500 nM; C denotes an inhibitory activity showing the IC50 value of 500 nM or greater and less than 1000 nM; and D denotes an inhibitory activity showing the IC50 value of 1000 nM or greater.

[2] = IC50 class, read-out: binding inhibitory activity
[3] = read-out: CRTH2 binding inhibitory activity IC50 value

Molecule `O=C(O)Cc1cnc(C(=O)c2ccc(NC(=O)c3ccc(OC(F)(F)F)cc3)cc2)c2ccccc12` [Example 8] has an IC50 (CRTH2 (KB8 cells)) of under 50 nM and an IC50 [1, 2] of under 50 nM.
In the case of `O=C(O)Cc1cnc(C(=O)c2ccc(NC(=O)Cc3ccc(-c4ccccc4)cc3)cc2)c2ccccc12` [Example 22], the IC50 (CRTH2 (KB8 cells)) is reported as 50 to 500 nM and the IC50 [1, 2] is reported as under 50 nM.
With `O=C(O)Cc1cnc(C(=O)c2ccc(OCCCc3ccc(Cl)cc3)cc2)c2ccccc12` [Example 142] the IC50 (CRTH2 (KB8 cells)) was 50 to 500 nM and the IC50 [1, 2] was under 50 nM.
Work on `O=C(O)Cc1cnc(C(=O)c2ccc(NC(=O)Nc3ccc(Cl)c(Cl)c3)cc2)c2ccccc12` [Example 130, {1-[(4-{[(3,4-dichlorophenyl)carbamoyl]amino}phenyl)carbonyl]isoquinolin-4-yl}acetic acid] yielded an IC50 (CRTH2 (KB8 cells)) of under 50 nM and an IC50 [1, 2] of under 50 nM.
`O=C(O)Cc1cnc(C(=O)c2ccc(C(=O)NCCc3ccc(Cl)c(Cl)c3)cc2)c2ccccc12` [Example 137] gave an IC50 (CRTH2 (KB8 cells)) of under 50 nM and an IC50 [1, 2] of under 50 nM.
`O=C(O)Cc1cnc(C(=O)c2ccc(NC(=O)c3cc4ccccc4o3)cc2)c2ccccc12` [Example 50] was tested, and the IC50 (CRTH2 (KB8 cells)) was under 50 nM and the IC50 [1, 2] was under 50 nM.
With `COc1ccc(C(=O)Nc2ccc(C(=O)c3ncc(CC(=O)O)c4ccccc34)cc2)cc1` [Example 7] the IC50 (CRTH2 (KB8 cells)) was under 50 nM and the IC50 [1, 2] was under 50 nM.
With `O=C(O)Cc1cnc(C(=O)c2ccc(NC(=O)/C=C/c3ccc(F)cc3)cc2)c2ccccc12` [Example 83] the IC50 (CRTH2 (KB8 cells)) was under 50 nM and the IC50 [1, 2] was under 50 nM.
For `O=C(O)Cc1cnc(C(=O)c2ccc(NC(=O)COc3ccc(Cl)c(Cl)c3)cc2)c2ccccc12` [Example 23], the IC50 (CRTH2 (KB8 cells)) was under 50 nM and the IC50 [1, 2] was under 50 nM.
Molecule `O=C(O)Cc1cnc(C(=O)c2ccc(NC(=O)c3cccc(Cl)c3)cc2)c2ccccc12` [Example 27] has an IC50 (CRTH2 (KB8 cells)) of under 50 nM and an IC50 [1, 2] of under 50 nM.
`O=C(O)Cc1cnc(C(=O)c2ccc(OCc3ccc(Cl)c(Cl)c3)cc2)c2ccccc12` [Example 134, [1-({4-[(3,4-dichlorobenzyl)oxy]phenyl}carbonyl)isoquinolin-4-yl]acetic acid] gave an IC50 (CRTH2 (KB8 cells)) of 50 to 500 nM and an IC50 [1, 2] of under 50 nM.
In the case of `O=C(O)Cc1cnc(C(=O)c2ccc(NC(=O)NCc3ccc(Cl)c(Cl)c3)cc2)c2ccccc12` [Example 132, {1-[(4-{[(3,4-dichlorobenzyl)carbamoyl]amino}phenyl)carbonyl]isoquinolin-4-yl}acetic acid], the IC50 (CRTH2 (KB8 cells)) is reported as 50 to 500 nM and the IC50 [1, 2] is reported as under 50 nM.
Molecule `O=C(O)Cc1cnc(C(=O)c2ccc(NC(=O)/C=C/c3ccc(Cl)c(Cl)c3)cc2)c2ccccc12` [Example 6] has an IC50 (CRTH2 (KB8 cells)) of under 50 nM and an IC50 [1, 2] of under 50 nM.
For `O=C(O)Cc1cnc(C(=O)c2ccc(C(=O)NCCc3cccc(Cl)c3)cc2)c2ccccc12` [Example 139], the IC50 (CRTH2 (KB8 cells)) was under 50 nM and the IC50 [1, 2] was under 50 nM.
`Cc1ccc(C(=O)Nc2ccc(C(=O)c3ncc(CC(=O)O)c4ccccc34)cc2)cc1` [Example 17] gave an IC50 (CRTH2 (KB8 cells)) of under 50 nM and an IC50 [1, 2] of under 50 nM.
Work on `O=C(O)Cc1cnc(C(=O)c2ccc(NC(=O)Cc3ccc(Cl)c(Cl)c3)cc2)c2ccccc12` [Example 3] yielded an IC50 (CRTH2 (KB8 cells)) of under 50 nM and an IC50 [1, 2] of under 50 nM.
Molecule `CCCCCc1ccc(C(=O)Nc2ccc(C(=O)c3ncc(CC(=O)O)c4ccccc34)cc2)cc1` [Example 57] has an IC50 (CRTH2 (KB8 cells)) of under 50 nM, an IC50 [1, 2] of under 50 nM and an IC50 [1, 3] of 3.4 nM.
With `O=C(O)Cc1cnc(C(=O)c2ccc(NC(=O)CCc3ccc(Cl)c(Cl)c3)cc2)c2ccccc12` [Example 4] the IC50 (CRTH2 (KB8 cells)) was under 50 nM and the IC50 [1, 2] was under 50 nM.
With `O=C(O)Cc1cnc(C(=O)c2ccc(NC(=O)c3cc4ccccc4[nH]3)cc2)c2ccccc12` [Example 18] the IC50 (CRTH2 (KB8 cells)) was under 50 nM, the IC50 [1, 2] was under 50 nM and the IC50 [1, 3] was 3.5 nM.
`O=C(O)Cc1cnc(C(=O)c2ccc(NCc3ccc(Cl)c(Cl)c3)cc2)c2ccccc12` [Example 133, [1-({4-[(3,4-dichlorobenzyl)amino]phenyl}carbonyl)isoquinolin-4-yl]acetic acid] showed an IC50 (CRTH2 (KB8 cells)) of under 50 nM and an IC50 [1, 2] of under 50 nM.
